Reference: US10596184B2, “Aza-heteroaryl compounds as PI3K-gamma inhibitors” (Incyte Corporation, priority 2015, dated 2020)
pIC50: −log10 of the molar value. Like-named read-outs stand apart in the source and are kept apart here.

Test system: Phosphorylated Ribosomal Protein S6 (RPS6) in THP-1 cells
Test: THP-1 RPS6 ELISA Assay
Format: cell-based, Human
Conditions: 2 hours with compound, then 10 nM MCP-1 for 15 minutes, read-out: THP p-RPS6 ELISA IC50
Description: To measure the Phosphorylated Ribosomal Protein S6 (RPS6) in cell lysates, THP-1 cells (Human Acute Monocytic Leukemia) are purchased from ATCC (Manassas, Va.) and maintained in RPMI with 10% FBS (Gibco/Life Technologies, Carlsbad, Calif.). For the assay, THP-1 cells are serum starved overnight in RPMI, then plated in RPMI (2×10^5 cells/well in 90 μL) into 96-well flat-bottom tissue culture treated plates (Corning, Corning, N.Y.), in the presence or absence of a concentration range of test compounds. Covered plates are incubated for 2 hours at 37° C., 5% CO2 then treated with or without 10 nM MCP-1 (MYBioSource, San Diego, Calif.) for 15 minutes at 37° C., 5% CO2. Plates are centrifuged at 1600 RPM and supernatants are removed. Cells are lysed in Lysis Buffer (Cell Signaling, Danvers, Mass.) with Protease Inhibitor (Calbiochem/EMD, Germany), PMSF (Sigma, St Louis Mo.), HALTS (Thermo Fisher, Rockford, Ill.) for 30 min on wet ice. Cell lysates are frozen at −80° C. before testing. The lysates are tested in the Human/Mouse/Rat Phospho-RPS6 ELISA (R&D Systems, Inc. Minn, Minn.). The plate is measured using a microplate reader (SpectraMax M5—Molecular Devices, LLC Sunnyvale, Calif.) set to 450 nm with a wavelength correction of 540. […]

SMILES	pIC50	pIC50 (Homo sapiens)
CN1CCN(S(=O)(=O)Nc2cncc(-c3ccc4nc(-c5nc6ccccc6[nH]5)oc4c3)c2)CC1 [Example 31, N-(5-(2-(1H-Benzofdlimidazol-2-yl)benzo[d]oxazol-6-yl)pyridin-3-yl)-4-methylpiperazine-1-sulfonamide]	> 6.00	–
CCS(=O)(=O)Nc1cncc(-c2ccc3nc(-c4nc(C)c(C)[nH]4)oc3c2)c1 [Example 63, N-(5-(2-(4,5-Dimethyl-1H-imidazol-2-yl)benzo[d]oxazol-6-yl)pyridin-3-yl)ethanesulfonamide bis(trifluoroacetate)]	–	> 5.30
